# Assay results reported in US6329339A, “Pharmaceutical antiviral composition comprising glycyrrhizic acid and at least one protein endowed with antiviral activity” (priority 1997, dated 2001).
# Legend:
# HSV1 [1] = conditions: Arch. Virol. 1995; cited from earlier work
# [2] = system: human immunodeficiency virus; conditions: in vitro; cited from earlier work
# human cytomegalovirus = conditions: in vitro; cited from earlier work
# [3] = system: Herpes Simplex Virus type 1; conditions: cited from earlier work
# [4] = in vivo, cited from earlier work
# HSV1 [5] = assay: Inhibition of HSV1 viral plaques on VERO cells; format: cell-based, Herpes Simplex Virus type 1; conditions: for Inhibition (%) of viral plaques with various lysozymes: percentage of the control ± standard deviation
# [6] = system: infected cells, synthesis of proteins; conditions: even at doses of 4 mM; cited from earlier work
# [7] = system: normal cells, synthesis of glyco-proteins; conditions: cited from earlier work
# [8] = system: normal cells, synthesis of proteins; conditions: even at doses of 4 mM; cited from earlier work
# HSV1 [9] = conditions: 8 mM, cited from earlier work
# [10] = system: virus (viral replication); conditions: cited from earlier work
# [11] = system: infected cells, synthesis of glyco-proteins; conditions: cited from earlier work
# [12] = Human alphaherpesvirus 1, Vero, read-out: Glycyrrhizic acid - Inhibition (%) of viral plaques
compound,measurement,setting,value
lactoferrin,antiviral / antiherpetic (HSV1) activity of lactoferrin,HSV1 [1],antiherpetic (HSV1) activity
same,activity against human immunodeficiency virus replication,[2],potent activity
same,activity against human cytomegalovirus replication,human cytomegalovirus,potent activity
Nc1nc2c(ncn2COCCO)c(=O)[nH]1 [aciclovir],efficacy during the first infection,[3]; administered during the first infection,fairly efficient
same,prevention of re-infection,[3]; re-infection by Herpes Simplex Virus type 1,not preventing re-infection
same,efficacy in recurring infections,[3]; recurring infections,not very effective
same,side effects of oral treatment,[4]; po,"nausea, diarrhoea, itching, headaches, renal inadequacies and nephrotoxicity"
same,side effects of topical use,[4],often causes burning and irritation of mucous membranes
chicken lysozyme: chicken lysozyme supplied by SIGMA,Inhibition (%) of viral plaques with various lysozymes,HSV1 [5]; 0.5 mg/ml,20 ± 4%
same,Inhibition (%) of viral plaques with various lysozymes,HSV1 [5]; 1 mg/ml,49 ± 5%
same,Inhibition (%) of viral plaques with various lysozymes,HSV1 [5]; 2 mg/ml,60 ± 6%
same,Inhibition (%) of viral plaques with various lysozymes,HSV1 [5]; 4 mg/ml,71 ± 6%
same,Inhibition (%) of viral plaques with various lysozymes,HSV1 [5]; 6 mg/ml,82 ± 4%
same,dose dependence of the action,HSV1 [5]; in words,dose-dependent
same,formation of herpetic virus plaques on VERO cells,HSV1 [5]; in words,significantly inhibits
CC1(C)[C@@H](O[C@H]2O[C@H](C(=O)O)[C@@H](O)[C@H](O)[C@H]2O[C@@H]2O[C@H](C(=O)O)[C@@H](O)[C@H](O)[C@H]2O)CC[C@]2(C)[C@H]3C(=O)C=C4[C@@H]5C[C@@](C)(C(=O)O)CC[C@]5(C)CC[C@@]4(C)[C@]3(C)CC[C@@H]12 [glycyrrhizic acid],"action on the synthesis of proteins, infected cells",[6],practically irrelevant
same,inhibition at 200 µg/mL,HSV1 [5]; [12],0%
same,inhibition at 400 µg/mL,HSV1 [5]; [12],10 ± 4%
same,inhibition at 600 µg/mL,HSV1 [5]; [12],27 ± 7%
same,inhibition at 800 µg/mL,HSV1 [5]; [12],50 ± 8%
same,inhibition at 1000 µg/mL,HSV1 [5]; [12],75 ± 12%
same,"inhibition of incorporation of glucosamine-H^3, normal cells","[7]; 0.5 mM, normal cells",no inhibition
same,inhibition of the synthesis of glyco-proteins in the control,"[7]; 1 mM, control (normal) cells",no inhibition
same,synthesis of glyco-proteins in the normal cells,"[7]; 4 mM, normal cells",slightly altered
same,cell glycoproteins synthesis,[7]; only at very high doses,only at very high doses does it also inhibit
same,"action on the synthesis of proteins, normal cells",[8],practically irrelevant
same,Viral production after 12 hours,"HSV1 [9]; contact 2 hours at 37° C., 12 hours (control 3 × 10^6)",4.2 × 10^4 PFU/ml
same,Viral production after 17 hours,"HSV1 [9]; contact 2 hours at 37° C., 17 hours (control 5.4 × 10^6)",1.2 × 10^4 PFU/ml
same,inhibition at 12 hours from the infection,HSV1 [9]; 12 hours,about 2 logarithms
same,inhibition at 22 hours from infection,HSV1 [9]; 22 hours,~3 logarithms
same,inhibition at 22 hours from infection (%),HSV1 [9]; 22 hours,99.9%
same,decrease in infection,"HSV1 [9]; at 12, 17 and 22 hours",strong decrease in infection
same,inhibition of viral replication,[10]; 0.5 mM,50%
same,reduction of the virus,[10]; 1 mM,80%
same,inhibition of production of the virus,[10]; 4 mM,99%
same,antiviral activity,[10],a certain antiviral activity
same,"reduction in the incorporation of glucosamine-H^3, infected cells","[11]; 0.5 mM, infected cells",more than 10%
same,reduction in the synthesis of glyco-protein in infected cells,"[11]; 1 mM, infected cells",20%
same,synthesis of viral glycoproteins,[11]; at antiviral doses,largely inhibits
